The text below walks through data of PubChem BioAssay AID493075 (Broad Institute, 2011).

Active and inactive are the calls of the source.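 The calls were made as follows: active = luminescence drop in every repeat test, with half-maximal concentration at most ten times the top dose; inconclusive = repeat tests disagree; inactive = inactive in every repeat test.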

Tested on in the first test: not listed separately
The test can be described thus: inhibitors of AI-2 quorum sensing in V. harveyi, dose response, LuxS, LuxPQ, dry powder, set 3 (AID 493075). The conditions noted are these: Vibrio harveyi JMH597 AI-2 quorum sensing luminescence, 9 h; at 16 µM (top of the series).
In the case of `C[C@@H]1CN([C@@H](C)CO)C(=O)Cc2cc(NC(=O)CCN3CCOCC3)ccc2O[C@H]1CN(C)C(=O)Nc1ccc(C(F)(F)F)cc1`, the activity change, negative = inhibition is -2.52% (inactive).
On the same count and under the same terms, the value for `O=S(=O)(Nc1ccccn1)c1ccccc1` was -0.42% (inactive).
For `C[C@@H]1CN([C@@H](C)CO)C(=O)Cc2cc(NC(=O)CCN3CCOCC3)ccc2O[C@H]1CN(C)C(=O)Nc1ccc(F)cc1`, the activity change, negative = inhibition was -10.1% (inactive).
On the same count and under the same terms, the same measure for `C[C@@H]1CN([C@@H](C)CO)C(=O)Cc2cc(NC(=O)CCCN(C)C)ccc2O[C@H]1CN(C)CC1CCCCC1`: 5.19% (inactive); for `C[C@H](CO)N1C[C@H](C)[C@@H](CN(C)C(=O)Nc2ccc(C(F)(F)F)cc2)Oc2ccc(NC(=O)Nc3ccc4c(c3)OCO4)cc2C1=O`: -5.58% (inactive).
`Cc1ccc(S(=O)(=O)Nc2ccc3c(c2)CC(=O)N([C@@H](C)CO)C[C@@H](C)[C@H](CN(C)C(=O)Nc2ccc(F)cc2)O3)cc1`: the activity change, negative = inhibition is -1.6% (inactive).
Still for that read-out and setting: the value for `C[C@@H]1CCCCO[C@@H](CN(C)C(=O)Nc2ccc(C(F)(F)F)cc2)[C@H](C)CN([C@@H](C)CO)C(=O)c2cc(NC(=O)CCC(F)(F)F)ccc2O1` was -7.66% (inactive).
On the same count and under the same terms, the value for `C=Cn1c(C(=O)O)ccc1-c1cccs1` was 1.45% (inactive); that for `C[C@@H]1CCCCO[C@@H](CN(C)Cc2ccncc2)[C@H](C)CN([C@H](C)CO)C(=O)c2cc(NC(=O)C3CCCCC3)ccc2O1` was 0.341% (inactive).
Same read-out and setting: the same measure for `C[C@H]1CN([C@@H](C)CO)C(=O)c2cc(NC(=O)Nc3ccc4c(c3)OCO4)ccc2O[C@@H]1CN(C)C(=O)Nc1ccc(C(F)(F)F)cc1`: -5.41% (inactive); for `C[C@@H]1CCCCO[C@@H](CN(C)C(=O)Nc2cccc3ccccc23)[C@H](C)CN([C@H](C)CO)C(=O)c2cc(NC(=O)CCC(F)(F)F)ccc2O1`: -4.12% (inactive); for `C[C@H](CO)N1C[C@H](C)[C@H](CN(C)Cc2ccc(C(=O)O)cc2)Oc2ncc(-c3ccc(C(=O)N(C)C)cc3)cc2C1=O`: 24.5% (inactive).
`C[C@@H]1CCCCO[C@@H](CN(C)Cc2ccc(C(=O)O)cc2)[C@H](C)CN([C@H](C)CO)C(=O)c2cc(NC(=O)CCCN(C)C)ccc2O1`: the activity change, negative = inhibition is -4.89% (inactive).
On the same count and under the same terms, the same measure for `Cc1ccc(S(=O)(=O)Nc2ccc3c(c2)C(=O)N([C@H](C)CO)C[C@H](C)[C@@H](CN(C)Cc2ccc(C(F)(F)F)cc2)O3)cc1`: -11% (inactive); for `CNC[C@@H]1Oc2ccc(NC(=O)C3CCCCC3)cc2CC(=O)N([C@@H](C)CO)C[C@H]1C`: -5.97% (inactive).
On to `C[C@@H]1CN([C@H](C)CO)C(=O)c2cccc(NC(=O)Nc3ccc(C(F)(F)F)cc3)c2O[C@@H]1CN(C)C(=O)Nc1ccc(C(F)(F)F)cc1`, for which the activity change, negative = inhibition was -16.5% (inactive).

The next test has as its system Vibrio harveyi JMH597 AI-2 quorum sensing luminescence, 9 h. The description is as above.
Conditions: not given
For the compound `C=Cn1c(C(=O)O)ccc1-c1ccc(Cl)cc1`, the AC50 is 4.97 µM.
Still for that read-out and setting: the value for `CCc1ccc(-c2ccc(C(=O)O)n2C)cc1` was 4.46 µM.
Same read-out and setting: the same measure for `C[C@H](CO)N1C[C@H](C)[C@@H](CN(C)Cc2ccc3c(c2)OCO3)Oc2c(NC(=O)NC3CCCCC3)cccc2C1=O`: 7.05 µM.
Regarding `C=Cn1c(C(=O)O)ccc1-c1ccc(OC)cc1`, the AC50 is 8.59 µM.
For the compound `O=S(=O)(Nc1cccnc1)c1ccc(Oc2ccccc2)cc1`, the AC50 is 0.627 µM.
On the same count and under the same terms, the same measure for `O=C1C=C/C(=C/Br)O1`: 3.78 µM; for `C[C@@H]1CN([C@H](C)CO)C(=O)c2ccccc2-c2ccccc2CO[C@@H]1CN(C)Cc1ccc(Oc2ccccc2)cc1`: 12.7 µM; for `CCc1ccc(S(=O)(=O)Nc2ccc(Br)cn2)cc1`: 3.67 µM.
